Source: US12630498B2 (Genzyme Corporation, priority 2019, dated 2026)

Columns and labels:
[1] = molecular target: T1, human Cystic Fibrosis Transmembrane Conductance Regulator (CFTR) harboring the ΔF508 mutation (Homo sapiens, UniProt P13569, DEL508-508); assay: H441 cell ΔF508-CFTR-HRP cell surface assay (Emax and EC50); assay type: cell-based; conditions: for Emax: NCI-H441, NA = Not active
T1 construct: expressed in transfected cells; host or cells: H441 carcinoma line (G418-selected)
Procedure, shortened: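 H441 and 41o- bronchial epithelial cells expressing ΔF508-CFTR with an extracellular-loop-4 HRP tag were treated with a 15-point compound series (24.5–0.001 μM) for two nights, H441 at 27° C, 41o- at 37° C with 0.0005 mg/ml doxycycline. Surface HRP luminescence read; % of maximum VX809 signal and EC50 derived.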

[2] = molecular target: T2, CFTR-mediated transepithelial chloride transport in primary human bronchial epithelial cells from a ΔF508 homozygous CF donor (Homo sapiens, UniProt P13569, DEL508-508); assay: TECC24 recording of CFTR-mediated transepithelial chloride transport in CF-HBE cells (AUC fold over DMSO); assay type: cell-based; conditions: test agent 10 μM, 48 hours incubation, AUC of forskolin-stimulated IEQ relative to DMSO
T2 construct: Primary human bronchial epithelial cells from a ΔF508 homozygous CF donor; host or cells: primary CF-HBE cells, ΔF508 homozygous donor
Procedure, shortened: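 Primary ΔF508/ΔF508 CF-HBE cells on inserts exposed to test agent in IL-13-containing medium for 48 h at 36.5 °C. Current-clamp VT/TEER recording in pH 7.4 HEPES saline with benzamil 10 μM, forskolin 10 μM, then CFTRinh-172 20 μM. AUC of equivalent Cl⁻ current between forskolin and inhibitor, expressed as ratio over vehicle.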

T1 sequence (P13569 with tags, fused parts or gaps DEL508-508): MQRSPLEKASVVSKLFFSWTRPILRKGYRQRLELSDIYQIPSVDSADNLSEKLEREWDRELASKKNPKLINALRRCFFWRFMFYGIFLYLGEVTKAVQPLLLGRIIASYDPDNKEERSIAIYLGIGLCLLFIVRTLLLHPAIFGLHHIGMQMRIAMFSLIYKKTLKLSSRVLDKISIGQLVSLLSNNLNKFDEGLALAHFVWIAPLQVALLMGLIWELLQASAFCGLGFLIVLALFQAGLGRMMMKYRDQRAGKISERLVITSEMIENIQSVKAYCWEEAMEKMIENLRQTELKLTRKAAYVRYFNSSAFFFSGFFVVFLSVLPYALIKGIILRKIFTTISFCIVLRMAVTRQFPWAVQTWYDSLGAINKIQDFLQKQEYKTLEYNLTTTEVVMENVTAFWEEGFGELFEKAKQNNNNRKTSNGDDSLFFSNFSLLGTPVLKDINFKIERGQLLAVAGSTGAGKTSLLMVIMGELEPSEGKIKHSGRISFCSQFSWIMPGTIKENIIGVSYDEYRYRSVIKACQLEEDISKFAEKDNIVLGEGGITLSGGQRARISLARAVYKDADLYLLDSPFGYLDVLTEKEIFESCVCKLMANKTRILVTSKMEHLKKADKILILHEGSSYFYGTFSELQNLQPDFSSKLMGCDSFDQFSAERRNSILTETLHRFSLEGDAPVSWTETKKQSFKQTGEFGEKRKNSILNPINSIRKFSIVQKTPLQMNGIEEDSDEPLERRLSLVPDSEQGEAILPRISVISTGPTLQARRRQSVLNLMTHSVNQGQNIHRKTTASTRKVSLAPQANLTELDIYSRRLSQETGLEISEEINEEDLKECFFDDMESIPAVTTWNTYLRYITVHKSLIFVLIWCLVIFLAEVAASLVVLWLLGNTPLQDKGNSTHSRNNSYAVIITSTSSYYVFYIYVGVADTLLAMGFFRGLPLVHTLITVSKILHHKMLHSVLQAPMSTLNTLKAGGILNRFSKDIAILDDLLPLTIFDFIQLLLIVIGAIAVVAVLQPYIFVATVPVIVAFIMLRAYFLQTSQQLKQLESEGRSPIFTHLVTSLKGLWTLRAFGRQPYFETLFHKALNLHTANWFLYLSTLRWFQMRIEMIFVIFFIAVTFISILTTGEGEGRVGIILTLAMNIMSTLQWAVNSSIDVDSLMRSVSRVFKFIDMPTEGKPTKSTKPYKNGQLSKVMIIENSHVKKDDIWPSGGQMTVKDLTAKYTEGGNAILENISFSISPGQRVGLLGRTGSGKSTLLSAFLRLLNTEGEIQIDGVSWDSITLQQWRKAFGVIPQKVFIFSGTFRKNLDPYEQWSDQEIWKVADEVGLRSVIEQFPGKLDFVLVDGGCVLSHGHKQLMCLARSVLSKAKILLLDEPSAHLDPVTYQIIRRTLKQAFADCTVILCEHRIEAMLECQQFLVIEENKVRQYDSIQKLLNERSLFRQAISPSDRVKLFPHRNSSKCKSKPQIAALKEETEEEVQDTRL
T2 sequence (P13569 with tags, fused parts or gaps DEL508-508): as above

| Structure (SMILES) | EC50 [1] | Emax [1] | TECC24 AUC fold over DMSO @10 μM [2] |
| --- | --- | --- | --- |
| C#CC(C)(C)C(NC(=O)c1ccc2ccccc2c1OCc1ccc(C(F)(F)F)cc1)C(=O)O (centres unmarked) [Example 228, 3,3-dimethyl-2-[[1-[[4-(trifluoromethyl)phenyl]methoxy]naphthalene-2-carbonyl]amino]pent-4-ynoic Acid] | 2000 nM | 215% | A (“A” refers to AUC @10 uM >6) |
| CC(C)(C)[C@H](NC(=O)c1ccc2ccccc2c1OC[C@H]1CC[C@H](C(F)(F)F)CC1)C(=O)O [Example 222, (2S)-3,3-dimethyl-2-[[1-[[4-(trifluoromethyl)cyclohexyl]methoxy]naphthalene-2-carbonyl]amino]butanoic Acid] | 2900 nM | 154% | A (“A” refers to AUC @10 uM >6) |
| O=C(N[C@H](C(=O)O)c1ccccc1)c1ccc2ccccc2c1OCc1ccc(C(F)(F)F)cc1 [Example 140, (S)-2-phenyl-2-(1-((4-(trifluoromethyl)benzyl)oxy)-2-naphthamido)acetic Acid] | 5700 nM | 82.9% | C (“C” refers to AUC @10 uM <4) |
| CC(C)(C)C[C@H](NC(=O)c1ccc2ccccc2c1OC[C@H]1CC[C@H](C(F)(F)F)CC1)C(=O)O [Example 179, (S)-4,4-dimethyl-2-(1-(((1r,4S)-4-(trifluoromethyl)cyclohexyl)methoxy)-2-naphthamido)pentanoic Acid] | 3400 nM | 103% | C (“C” refers to AUC @10 uM <4) |
| C#CC(C)(C)C(NC(=O)c1ccc2ccccc2c1OCc1ccc(SC(F)(F)F)cc1)C(=O)O (centres unmarked) [Example 227, 3,3-dimethyl-2-[[1-[[4-(trifluoromethylsulfanyl)phenyl]methoxy]naphthalene-2-carbonyl]amino]pent-4-ynoic Acid] | 1300 nM | 160% | C (“C” refers to AUC @10 uM <4) |
| CC1(C(NC(=O)c2ccc3ccccc3c2OCc2ccc(SC(F)(F)F)cc2)C(=O)O)CCCCC1 (centres unmarked) [Example 36, 2-(1-methylcyclohexyl)-2-(1-((4-((trifluoromethyl)thio)benzyl)oxy)-2-naphthamido)acetic Acid] | 700 nM | 133% | B (“B” refers to AUC @10 uM between 4-6) |
| CC(C)(C)[C@@H](NC(=O)c1ccc2ccc(Cl)cc2c1OCc1ccc(OC(F)(F)F)cc1)C(=O)O [Example 285, (R)-2-(7-chloro-1-((4-(trifluoromethoxy)benzyl)oxy)-2-naphthamido)-3,3-dimethylbutanoic Acid] | 800 nM | 99.1% | C (“C” refers to AUC @10 uM <4) |
| Cc1cc(C)c(C[C@H](NC(=O)c2ccc3ccccc3c2OCc2ccc(C(F)(F)F)cc2)C(=O)O)c(C)c1 [Example 178, (S)-3-mesityl-2-(1-((4-(trifluoromethyl)benzyl)oxy)-2-naphthamido)propanoic Acid] | 900 nM | 150% | C (“C” refers to AUC @10 uM <4) |
| CC(C)(SCC1CC1(F)F)[C@H](NC(=O)c1ccc2ccccc2c1OCc1ccc(C(F)(F)F)cc1)C(=O)O (stereo partly drawn) [Example 163, (2R)-3-(((2,2-difluorocyclopropyl)methyl)thio)-3-methyl-2-(1-((4-(trifluoromethyl)benzyl)oxy)-2-naphthamido)butanoic Acid] | 700 nM | 138% | C (“C” refers to AUC @10 uM <4) |
| CC(C)(C)[C@H](NC(=O)c1ccc2ccc(F)cc2c1OCc1ccc(C(F)(F)F)cc1)C(=O)O [Example 241, (S)-2-(7-fluoro-1-((4-(trifluoromethyl)benzyl)oxy)-2-naphthamido)-3,3-dimethylbutanoic Acid] | 100 nM | 236% | A (“A” refers to AUC @10 uM >6) |
| Cc1ccc2ccc(C(=O)N[C@H](C(=O)O)C(C)(C)C)c(OCc3ccc(C(F)(F)F)cc3)c2c1 [Example 279, (2S)-3,3-dimethyl-2-[[7-methyl-1-[[4-(trifluoromethyl)phenyl]methoxy]naphthalene-2-carbonyl]amino]butanoic Acid] | 100 nM | 348% | A (“A” refers to AUC @10 uM >6) |
| CC(C)(C)[C@@H](NC(=O)c1ccc2ccc(C(F)F)cc2c1OCc1ccc(C(F)(F)F)cc1)C(=O)O [Example 265, (2R)-2-[[7-(difluoromethyl)-1-[[4-(trifluoromethyl)phenyl]methoxy]naphthalene-2-carbonyl]amino]-3,3-dimethyl-butanoic Acid] | 600 nM | 96.2% | C (“C” refers to AUC @10 uM <4) |
| O=C(N[C@@H](Cc1ccc(C(F)(F)F)cc1)C(=O)O)c1ccc2cc(F)ccc2c1OCc1nc2ccccc2s1 [Example 217, (S)-2-(1-(benzo[d]thiazol-2-ylmethoxy)-6-fluoro-2-naphthamido)-3-(4-(trifluoromethyl)phenyl)propanoic Acid] | 15900 nM | 65.8% | C (“C” refers to AUC @10 uM <4) |
| CCC(C)(C)[C@H](NC(=O)c1ccc2ccccc2c1OCc1ccc(SC(F)(F)F)cc1)C(=O)O [Example 55, (S)-3,3-dimethyl-2-(1-((4-((trifluoromethyl)thio)benzyl)oxy)-2-naphthamido)pentanoic Acid] | 600 nM | 115% | B (“B” refers to AUC @10 uM between 4-6) |
| CCCC(C)(C)[C@H](NC(=O)c1ccc2ccc(Cl)cc2c1OCc1ccc(C(F)(F)F)cc1)C(=O)O [Example 306, (S)-2-(7-chloro-1-((4-(trifluoromethyl)benzyl)oxy)-2-naphthamido)-3,3-dimethylhexanoic Acid] | 100 nM | 417% | A (“A” refers to AUC @10 uM >6) |
| CC(C)(SC1CC2CCC1C2)[C@H](NC(=O)c1ccc2ccccc2c1OCC1CCCCC1)C(=O)O (some centres unmarked) [Example 175] | 3000 nM | 152% | C (“C” refers to AUC @10 uM <4) |
| O=C(N[C@@H](Cc1ccccc1)C(=O)O)c1ccc2ccccc2c1OCCc1ccc(C(F)(F)F)cc1 [Example 97, (1-(4-(trifluoromethyl)phenethoxy)-2-naphthoyl)-L-phenylalanine] |  | 1.1% | C (“C” refers to AUC @10 uM <4) |
| Cc1ccc2ccc(C(=O)N[C@H](C(=O)O)C(C)(C)C)c(OCc3ccc(OC(F)(F)F)cc3)c2c1 [Example 249, (2S)-3,3-dimethyl-2-[[7-methyl-1-[[4-(trifluoromethoxy)phenyl]methoxy]naphthalene-2-carbonyl]amino]butanoic Acid] | 200 nM | 305% | A (“A” refers to AUC @10 uM >6) |
| CCC(C)(C)[C@H](NC(=O)c1ccc2c(F)cccc2c1OCc1ccc(OC(F)(F)F)cc1)C(=O)O [Example 226, (2S)-2-[[5-fluoro-1-[[4-(trifluoromethoxy)phenyl]methoxy]naphthalene-2-carbonyl]amino]-3,3-dimethyl-pentanoic Acid] | 400 nM | 139% | B (“B” refers to AUC @10 uM between 4-6) |
